Data from patent US6034097A, “Isoquinolines useful as analgesics” (Astra AB, priority 1996, dated 2000).
Where a name gives a salt, the structure may show the parent alone.

Experiments:
κ receptor = target: T1, κ receptor (Rattus norvegicus, UniProt P34975); test: Radioligand binding assay, κ receptor (Table 1); details: binding inhibition constant
T1 construct: from tissue

μ receptors [1] = target: T2, μ receptors (Rattus norvegicus, UniProt P33535); test: Radioligand binding assay, μ receptor, (3H)-DAMGO, rat brain membranes; details: Ki from IC50 by Cheng and Prusoff
T2 construct: the brains minus cerebellum were removed and place in ice-cold saline solution and then homogenized; from tissue; host or cells: rat brain minus cerebellum, membrane homogenate
T2 sequence (P33535 whole entry): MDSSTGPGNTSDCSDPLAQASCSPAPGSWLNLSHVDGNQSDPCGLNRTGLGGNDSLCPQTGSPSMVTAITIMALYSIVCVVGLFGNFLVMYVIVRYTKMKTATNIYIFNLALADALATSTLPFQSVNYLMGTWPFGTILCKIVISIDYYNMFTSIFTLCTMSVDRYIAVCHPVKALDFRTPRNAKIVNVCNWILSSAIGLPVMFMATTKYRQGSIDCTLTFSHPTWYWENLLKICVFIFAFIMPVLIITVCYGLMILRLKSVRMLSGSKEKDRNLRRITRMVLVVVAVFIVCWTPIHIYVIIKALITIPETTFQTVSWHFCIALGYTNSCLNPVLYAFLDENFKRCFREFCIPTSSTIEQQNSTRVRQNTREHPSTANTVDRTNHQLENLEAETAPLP
Protocol: (§1) PBQ (phenyl-.rho.-benzoquinone) induced writhing in mice is an assessment of both central and peripheral analgesia. For experimental protocol see Sigmund et al., Proc. Soc. Exp. Biol. Med., 15, p. 729(1957) which is incorporated herein by reference. Central analgesia is determined by the inhibition of a hot-plate response in mice. For experimental protocol see G. Woolfe and A. Macdonald, J. Pharmacol. Exp. Ther., 80, p.300 (1944) which is incorporated herein by reference. Assays measuring opioid receptor binding affinities for μ and δ receptors as well as GPI and MVD assays are determined through experimental protocol set out in Schiller et al., Biophys. Res. Commun., 85, p.1322 (1975) incorporated herein by reference.
(§2) Male Sprague-Dawley rats weighing between 350-450 g were sacrificed by inhalation of CO2. The rats were decapitated and the brains minus cerebellum were removed and place in ice-cold saline solution and then homogenized in ice-cold 50 mM Tris buffer pH 7.4 (10 ml/brain). The membranes were centrifuged at 14000 rpm for 30 min. at 4° C. The pellets were re-suspended in approximately 6 ml/brain of ice-cold Tris buffer 50 mM pH 7.4 and stored at -78° C. until ready for use. Protein quantification of the brain homogenate was conducted according to protein assay kit purchased (Bio-Rad).
(§3) (^3 H)-DAMGO and (^3 H) DAGLE were used as radioligands for the μ and δ receptors, respectively. Radioligand 50 μl, membranes 100 μl and serially diluted test compound were incubated for 1 hr at 22° C. Non specific binding was determined using 500 fold excess of unlabeled ligand in the presence of tracer and membranes. Free ligand was separated from bound by filtration through Whatman GF/B paper (presoaked in polyethylenimine 1% aqueous solution) and rinsing with ice-cold 50 mM Tris pH 7.4 using a Brandel cell harvester. The filters were dried and radioactivity was counted in a 24 well microplate in the presence of […] scintillant per well. Radioactivity was measured using a Wallac 1450 Microbeta counter.
(§4) Ki's for the various compounds were determined from the IC50 according to the Cheng and Prusoff equation.

μ receptors [2] = test: Guinea Pig Ileum (GPI) assay, longitudinal muscle preparation; format: cell-based
Protocol: (§5) The opioid activity of the peptides was assessed in vitro using the guinea pig ileum (GPI) longitudinal muscle preparation and their antinociceptive activity was determined in vivo in PBQ induced writhing models (peripheral activity) and in the hot-plate test (central activity) in rodents. […] Peripheral analgesia is shown by a high potency in the writhing test coupled with a low potency in the hot-plate test.
as §1
The activity of the peptide compounds on μ receptors was determined using the Guinea Pig Ileum (GPI) assay (longitudinal muscle preparation) according to the procedures described in Schiller et al., Biophys. Res. Commun., 85, p.1322 (1975).

δ receptors = target: T3, δ receptors (Rattus norvegicus, UniProt P33533); test: Radioligand binding assay, δ receptor, (3H) DAGLE, rat brain membranes; details: Ki from IC50 by Cheng and Prusoff
T3 construct: the brains minus cerebellum were removed and place in ice-cold saline solution and then homogenized; from tissue; host or cells: rat brain minus cerebellum, membrane homogenate
T3 sequence (P33533 whole entry): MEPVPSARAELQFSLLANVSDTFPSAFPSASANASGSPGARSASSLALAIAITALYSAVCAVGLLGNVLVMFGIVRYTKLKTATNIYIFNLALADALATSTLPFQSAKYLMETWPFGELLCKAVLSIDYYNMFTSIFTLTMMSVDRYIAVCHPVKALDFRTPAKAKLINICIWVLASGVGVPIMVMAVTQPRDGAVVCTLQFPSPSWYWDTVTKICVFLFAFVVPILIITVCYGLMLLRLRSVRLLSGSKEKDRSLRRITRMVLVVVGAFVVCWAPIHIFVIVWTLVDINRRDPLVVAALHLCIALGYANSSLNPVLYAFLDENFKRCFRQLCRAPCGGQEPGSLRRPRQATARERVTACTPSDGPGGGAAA
Protocol: as §1, §2
as §3, with “Free ligand was separated from bound by filtration through Whatman GF/B paper (presoaked in polyethylenimine 1% aqueous solution) and rinsing with ice-cold 50 mM Tris pH 7.4 using a Brandel cell harvester.” left out
as §4

[3] = In vitro stability in rat whole blood (RWB) at 37° C.; format: in vitro ADME
Protocol: (§6) In vitro stability of the compounds of the invention in rat whole blood (RWB) at 37° C. and in kidney brush border protease (KBBP) at 37° C.
The compound was initially dissolved in water or in 10% methyl sulfoxide (DMSO)/water to make a stock solution of 10 mg/ml.
The stock solution was added to 15 ml of freshly harvested rat whole blood and incubated at 37° C.
Blanks were prepared without spiking with compounds in rat whole blood.
Aliquots were then taken at specific time intervals, centrifuged, and a fraction of the supernatant was extracted with acetonitrile or with a solution of acetonitrile and 10% acetic acid.
The solvent(s) was(were) removed by evaporation. The resulting residue was analyzed by HPLC.

[4] = tested on: kidney brush border protease (KBBP); test: In vitro stability in kidney brush border protease (KBBP) at 37° C.; format: in vitro ADME; details: PBS pH 7.4, 37° C.; for Metabolites in KBBP: up to 1440 minutes
Protocol: as §6
1.0 mg of the compounds were dissolved in 1 ml PBS pH 7.4 and 500 µL of proteases (1.14 mg of protein/ml) were added.
An initial aliquot was taken at time 0, and the reaction was immediately stopped by placing the sample in a bath of boiling water for 2 minutes (the other time intervals were 5, 15, 30, 60, 120, 1440 minutes).
Blank samples without compounds were also prepared.
The aliquoted samples were filtered on a micron 0.45 filter and the resulting sample were analyzed by HPLC.

CD #1 male mice = test: PBQ (phenylquinone) induced writhing assay in mice; format: in vivo; details: compound by subcutaneous route, dose inducing 50% reduction in number of writhes vs control
Protocol: The term "ED50 " as shown in table 1 for the PBQ writhing assays is defined as the dose of drug which induces a 50% reduction in the number of writhes observed compared to the control. The term "ED50 " used in the hot-plate assays is defined as the dose of drug required to increase the latency of response 2-fold compared to controls and was determined by parallel-line probit analysis.
as §5, §1
The test was performed on CD #1 male mice weighing between 18 and 22 g. The mice were weighed and marked. They were injected, by intra-peritoneal route, with 0.3 ml/20 g by weight with a solution of phenylquinone at 0.02%. The contortions which appeared during a 15 minute time period following the injection were counted. The phenylquinone was injected at time intervals of 5, 20 or 60 minutes after administration of the compound (or medium, or standard) by subcutaneous route.
The 0.02% phenylquinone solution was prepared in the following fashion. […]

T1 sequence (P34975 whole entry): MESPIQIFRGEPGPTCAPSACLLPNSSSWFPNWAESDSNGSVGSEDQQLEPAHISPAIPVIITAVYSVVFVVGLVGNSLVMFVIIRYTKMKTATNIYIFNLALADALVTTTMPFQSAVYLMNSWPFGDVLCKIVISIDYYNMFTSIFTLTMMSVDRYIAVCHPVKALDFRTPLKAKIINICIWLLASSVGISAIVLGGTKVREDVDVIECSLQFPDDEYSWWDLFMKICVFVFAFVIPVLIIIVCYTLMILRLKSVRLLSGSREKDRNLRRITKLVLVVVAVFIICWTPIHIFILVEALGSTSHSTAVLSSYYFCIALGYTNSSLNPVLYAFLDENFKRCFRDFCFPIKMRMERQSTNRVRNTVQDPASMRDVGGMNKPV

| Structure (SMILES) | IC50 (μ receptors [2]) [nM] | Ki (δ receptors) [nM] | Metabolites in RWB [3] | half life in RWB [3] [h] | half life in KBBP [4] [h] | Metabolites in KBBP [4] | ED50 PBQ writhing (CD #1 male mice) [mg/kg] | further results |
| --- | --- | --- | --- | --- | --- | --- | --- | --- |
| Cc1cc(O)cc(C)c1CC(NC(=N)N)C(=O)N1Cc2ccccc2C[C@H]1C(=O)NC[C@H](O)Cc1ccccc1 (some centres unmarked) [compound #3B, 2-(2-Guanidino-3-(4-hydroxy-2,6-dimethyl-phenyl)-propionyl)-1,2,3,4-tetrahydro-isoquinoline-3-S-carboxylic acid (2-R-hydroxy-3-phenyl-propyl)-amide ditrifloroacetic salt] | 7.3 |  |  |  |  |  |  | Ki (κ receptor; listed as #3B): 164 ± 17.5 nM; Ki (μ receptors [1]; listed as #3B): 0.5 nM |
| Cc1cc(O)cc(C)c1CC(NC(=N)N)C(=O)N1Cc2ccccc2C[C@H]1C(=O)NC[C@H](O)Cc1ccccc1 (some centres unmarked) [compound #3, 2-(2-Guanidino-3-(4-hydroxy-2,6-dimethyl-phenyl)-propionyl)-1,2,3,4-tetrahydro-isoquinoline-3-S-carboxylic acid (2-R-hydroxy-3-phenyl-propyl)-amide ditrifloroacetic salt] |  | 0.56 ± 0.09 |  |  |  |  |  | Ki (κ receptor; listed as #3): 277 ± 13.6 nM; Ki (μ receptors [1]; listed as #3): 2.03 ± 0.37 nM |
| Cc1cc(O)cc(C)c1C[C@H](N)C(=O)N1Cc2ccccc2C[C@H]1C(=O)NCC(O)Cc1ccccc1.O=C(O)C(F)(F)F (stereo partly drawn) [compound #4A, 2-S-(2-Amino-3-(4-hydroxy-2,6-dimethyl-phenyl)-propionyl)-1,2,3,4-tetrahydro-isoquinoline-3-S-carboxylic acid (2-hydroxy-3-phenyl-propyl)amide trifluoroacetic salt] |  |  | none detected | > 2.1 | > 24 | 1 detected after |  |  |
| Cc1cc(O)cc(C)c1C[C@H](N)C(=O)N1Cc2ccccc2C[C@H]1C(=O)NCC(O)Cc1ccccc1.O=C(O)C(F)(F)F (stereo partly drawn) [4B, 2-S-(2-Amino-3-(4-hydroxy-2,6-dimethyl-phenyl)-propionyl)-1,2,3,4-tetrahydro-isoquinoline-3-S-carboxylic acid (2-hydroxy-3-phenyl-propyl)amide trifluoroacetic salt] | 13.8 | 0.1 ± 0.02 | none detected | > 5.32 | > 24 | none detected | 16.6 | Ki (κ receptor): 20.6 ± 0.5 nM; Ki (μ receptors [1]): 0.7 ± 0.27 nM |
| Cc1cc(O)cc(C)c1CC(N)C(=O)N1Cc2ccccc2CC1C(=O)NCCCc1ccccc1.O=C(O)C(F)(F)F (centres unmarked) [compound #5B, 2-(2-Amino-3-(4-Hydroxy-2,6-dimethyl-phenyl)-propionyl)-1,2,3,4-tetrahydro-isoquinoline-3-carboxylic acid (3-phenyl-propyl)amide trifluoroacetic salt] |  |  | none detected | > 20 | > 24 | none detected |  |  |
| Cc1cc(O)cc(C)c1CC(N)C(=O)N1Cc2ccccc2C[C@H]1C(=O)NCCCc1ccccc1.O=C(O)C(F)(F)F (some centres unmarked) [compound #6A, 2-(2-Amino-3-(4-Hydroxy-2,6-dimethyl-phenyl)-propionyl)-1,2,3,4-tetrahydro-isoquinoline-3-S-carboxylic acid (3-phenyl-propyl)amide trifluoroacetic salt] | 5.1 | 0.84 ± 0.08 |  |  |  |  | 2.4 | Ki (κ receptor): 49.6 ± 8.7 nM; Ki (μ receptors [1]): 0.11 ± 0.02 nM |
| Cc1cc(O)cc(C)c1CC(N)C(=O)N1Cc2ccccc2C[C@H]1C(=O)NCCCc1ccccc1.O=C(O)C(F)(F)F (some centres unmarked) [compound #5A, 2-(2-Amino-3-(4-Hydroxy-2,6-dimethyl-phenyl)-propionyl)-1,2,3,4-tetrahydro-isoquinoline-3-S-carboxylic acid (3-phenyl-propyl)amide trifluoroacetic salt] |  |  | none detected | > 24 | > 24 | none detected |  |  |
| Cc1cc(O)cc(C)c1CC(NC(=N)N)C(=O)N1Cc2ccccc2C[C@H]1C(=O)NC[C@H](O)Cc1ccccc1.O=C(O)C(F)(F)F.O=C(O)C(F)(F)F (some centres unmarked) [compound #3A, 2-(2-Guanidino-3-(4-hydroxy-2,6-dimethyl-phenyl)-propionyl)-1,2,3,4-tetrahydro-isoquinoline-3-S-carboxylic acid (2-R-hydroxy-3-phenyl-propyl)-amide ditrifloroacetic salt] |  |  |  |  |  |  | 3.8 | Ki (κ receptor; listed as #3A): 952 ± 122 nM; Ki (μ receptors [1]; listed as #3A): 2.94 ± 0.73 nM |
